# Key:
# [1] = biological target: T1, Adrenergic receptor alpha-2 (Rattus norvegicus, UniProt P22086+P19328+P22909); experiment: Binding affinity at native Alpha-2 adrenergic receptor in rat cerebral cortex by [3H]rauwolscine displacement.; assay type: tissue-based
# T1 sequence (P22086 whole entry): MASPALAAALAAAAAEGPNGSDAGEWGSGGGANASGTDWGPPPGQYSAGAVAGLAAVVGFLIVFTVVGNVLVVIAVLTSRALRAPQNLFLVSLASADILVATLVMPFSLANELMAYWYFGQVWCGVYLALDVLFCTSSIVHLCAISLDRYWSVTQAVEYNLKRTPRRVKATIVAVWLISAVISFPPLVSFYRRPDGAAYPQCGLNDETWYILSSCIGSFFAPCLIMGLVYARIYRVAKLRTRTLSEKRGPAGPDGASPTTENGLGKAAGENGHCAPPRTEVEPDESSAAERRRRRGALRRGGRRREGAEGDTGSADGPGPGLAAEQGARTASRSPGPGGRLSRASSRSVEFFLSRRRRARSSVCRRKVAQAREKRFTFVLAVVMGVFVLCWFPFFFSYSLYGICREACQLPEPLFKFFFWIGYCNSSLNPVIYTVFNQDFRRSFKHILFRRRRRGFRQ
# T1 sequence (P19328 whole entry): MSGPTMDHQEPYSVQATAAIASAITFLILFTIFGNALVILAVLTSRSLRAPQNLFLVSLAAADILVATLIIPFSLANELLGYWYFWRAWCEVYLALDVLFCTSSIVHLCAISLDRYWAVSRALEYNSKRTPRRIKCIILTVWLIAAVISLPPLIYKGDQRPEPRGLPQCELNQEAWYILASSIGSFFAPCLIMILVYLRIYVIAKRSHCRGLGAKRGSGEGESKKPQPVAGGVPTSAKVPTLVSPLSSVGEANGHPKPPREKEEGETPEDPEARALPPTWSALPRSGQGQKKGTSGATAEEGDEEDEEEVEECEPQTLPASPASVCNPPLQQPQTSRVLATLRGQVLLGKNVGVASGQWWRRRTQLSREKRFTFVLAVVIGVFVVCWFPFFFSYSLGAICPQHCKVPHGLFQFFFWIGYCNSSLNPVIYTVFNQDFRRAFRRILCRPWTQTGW
# T1 sequence (P22909 whole entry): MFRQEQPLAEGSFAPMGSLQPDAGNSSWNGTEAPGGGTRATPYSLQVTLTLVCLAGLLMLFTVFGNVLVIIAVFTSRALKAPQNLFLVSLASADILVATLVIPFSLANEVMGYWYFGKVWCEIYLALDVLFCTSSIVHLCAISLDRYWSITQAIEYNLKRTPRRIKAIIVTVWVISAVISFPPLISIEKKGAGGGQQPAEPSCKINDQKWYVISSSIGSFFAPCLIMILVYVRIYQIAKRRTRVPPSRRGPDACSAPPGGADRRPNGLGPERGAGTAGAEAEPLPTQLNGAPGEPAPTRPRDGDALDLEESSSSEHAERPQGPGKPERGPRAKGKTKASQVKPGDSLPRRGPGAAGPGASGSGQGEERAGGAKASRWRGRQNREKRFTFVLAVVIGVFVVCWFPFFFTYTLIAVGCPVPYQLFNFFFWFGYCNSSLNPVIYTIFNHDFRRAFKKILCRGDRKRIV
# [2] = biological target: T2, Alpha-1A adrenergic receptor (Homo sapiens, UniProt P35348); experiment: Binding affinity at human cloned Alpha-1A adrenergic receptor in chinese hamster ovary cells by [3H]-prazosin displacement.; assay type: cell-based, CHO
# T2 sequence (P35348 whole entry): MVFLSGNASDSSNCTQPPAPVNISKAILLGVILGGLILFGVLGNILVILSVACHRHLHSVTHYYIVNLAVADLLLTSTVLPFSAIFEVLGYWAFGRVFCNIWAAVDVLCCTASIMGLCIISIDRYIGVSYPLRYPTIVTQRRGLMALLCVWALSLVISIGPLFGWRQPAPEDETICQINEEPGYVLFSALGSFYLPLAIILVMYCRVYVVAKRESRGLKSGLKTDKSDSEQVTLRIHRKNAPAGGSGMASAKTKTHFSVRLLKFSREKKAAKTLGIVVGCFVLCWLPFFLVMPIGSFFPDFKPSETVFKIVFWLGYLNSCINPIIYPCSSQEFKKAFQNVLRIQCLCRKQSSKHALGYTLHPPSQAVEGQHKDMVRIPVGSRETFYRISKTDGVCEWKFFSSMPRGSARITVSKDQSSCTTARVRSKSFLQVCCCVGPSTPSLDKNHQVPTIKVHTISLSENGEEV
# [3] = biological target: T3, Alpha-1A adrenergic receptor (Rattus norvegicus, UniProt P43140); experiment: Antagonism of the norepinephrine induced contraction of rat isolated prostatic vas deferens.; assay type: functional; conditions: read-out: pA2 (converted)
# T3 sequence (P43140 whole entry): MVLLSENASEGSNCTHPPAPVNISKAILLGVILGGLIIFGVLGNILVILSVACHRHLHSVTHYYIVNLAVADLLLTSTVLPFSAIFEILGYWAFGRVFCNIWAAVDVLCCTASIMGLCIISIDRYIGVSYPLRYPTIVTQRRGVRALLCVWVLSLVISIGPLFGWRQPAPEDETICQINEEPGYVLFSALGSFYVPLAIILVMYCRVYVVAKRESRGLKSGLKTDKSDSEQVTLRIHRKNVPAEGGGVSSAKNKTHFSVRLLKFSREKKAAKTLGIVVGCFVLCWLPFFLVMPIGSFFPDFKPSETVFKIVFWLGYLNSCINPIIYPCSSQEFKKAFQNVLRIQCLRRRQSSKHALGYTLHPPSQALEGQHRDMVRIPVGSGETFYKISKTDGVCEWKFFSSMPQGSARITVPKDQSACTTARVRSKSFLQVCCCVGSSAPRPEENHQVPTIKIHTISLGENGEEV
# [4] = biological target: T4, Alpha-1D adrenergic receptor (Rattus norvegicus, UniProt P23944); experiment: Antagonism of norepinephrine induced contraction of rat isolated thoracic aorta.; assay type: functional, tissue-based; conditions: read-out: pA2 (converted)
# T4 sequence (P23944 whole entry): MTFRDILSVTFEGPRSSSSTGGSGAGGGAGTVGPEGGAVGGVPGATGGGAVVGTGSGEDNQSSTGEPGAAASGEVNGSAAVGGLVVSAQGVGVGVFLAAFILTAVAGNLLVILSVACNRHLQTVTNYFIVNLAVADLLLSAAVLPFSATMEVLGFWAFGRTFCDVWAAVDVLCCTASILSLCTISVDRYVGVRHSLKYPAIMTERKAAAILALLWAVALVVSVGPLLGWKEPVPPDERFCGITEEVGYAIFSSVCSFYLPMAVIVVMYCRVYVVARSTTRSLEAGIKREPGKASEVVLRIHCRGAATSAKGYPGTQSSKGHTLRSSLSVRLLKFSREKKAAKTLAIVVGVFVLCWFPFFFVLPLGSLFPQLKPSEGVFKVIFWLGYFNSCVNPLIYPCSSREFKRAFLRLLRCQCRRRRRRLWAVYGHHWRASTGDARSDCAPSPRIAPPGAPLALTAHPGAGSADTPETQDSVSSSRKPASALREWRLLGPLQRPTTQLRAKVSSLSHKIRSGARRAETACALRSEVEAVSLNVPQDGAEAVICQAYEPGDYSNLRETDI
# [5] = biological target: T1, Adrenergic receptor alpha-2; experiment: Antagonism of the clonidine-induced depression of twitch responses of rat isolated prostatic vas deferens.
structure (smiles),measurement,setting,value
COc1cc2nc(N(C)CCCCCCN(C)C(=O)c3cccc(CN(C)C)c3)nc(N)c2cc1OC,Log Ki,[1],-7.72
same,Ki,[2],0.324 nM
same,Kb,[3],55 nM
same,Kb,[4],5.5 nM
same,pA2,[5],< 5

# — ChEMBL document CHEMBL1131296 (J Med Chem, 1998)
